The results in this text go back to patent publication US20210300900A1, “OGA INHIBITOR COMPOUNDS” (Janssen Pharmaceutica NV, priority 2018, published 2021).

Some results are limits rather than exact numbers.

The assay concerns the target T1, recombinant human Meningioma Expressed Antigen 5 (MGEA5), also referred to as O-GcNAcase (OGA) (Homo sapiens, UniProt O60502).
T1 construct: Full length OGA enzyme was purchased at OnGene (cat #TP322411); purchased OnGene (so in the source)
T1 sequence (O60502 1-916): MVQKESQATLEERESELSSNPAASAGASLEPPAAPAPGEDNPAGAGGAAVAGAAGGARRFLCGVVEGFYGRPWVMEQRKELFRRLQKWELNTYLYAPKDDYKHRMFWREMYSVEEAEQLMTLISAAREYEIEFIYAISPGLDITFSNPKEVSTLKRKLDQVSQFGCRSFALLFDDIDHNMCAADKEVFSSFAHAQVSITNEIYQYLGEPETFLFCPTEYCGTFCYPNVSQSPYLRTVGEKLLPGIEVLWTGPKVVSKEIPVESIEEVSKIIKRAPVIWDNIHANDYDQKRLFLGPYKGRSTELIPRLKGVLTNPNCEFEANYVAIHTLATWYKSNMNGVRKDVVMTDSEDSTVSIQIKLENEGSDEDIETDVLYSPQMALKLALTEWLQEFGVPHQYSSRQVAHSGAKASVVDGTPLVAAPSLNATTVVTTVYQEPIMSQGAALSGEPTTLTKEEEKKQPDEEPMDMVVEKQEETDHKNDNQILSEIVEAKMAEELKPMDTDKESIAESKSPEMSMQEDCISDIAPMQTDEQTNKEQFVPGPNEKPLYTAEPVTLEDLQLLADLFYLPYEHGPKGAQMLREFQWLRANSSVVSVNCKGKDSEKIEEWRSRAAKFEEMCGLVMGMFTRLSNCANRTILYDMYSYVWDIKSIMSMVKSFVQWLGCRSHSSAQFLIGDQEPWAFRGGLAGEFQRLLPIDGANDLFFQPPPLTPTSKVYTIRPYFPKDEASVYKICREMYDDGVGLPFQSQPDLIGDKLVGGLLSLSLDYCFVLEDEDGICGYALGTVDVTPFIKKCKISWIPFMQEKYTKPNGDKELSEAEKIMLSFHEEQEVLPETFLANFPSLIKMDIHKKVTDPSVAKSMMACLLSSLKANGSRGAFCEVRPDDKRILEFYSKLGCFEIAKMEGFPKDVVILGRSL
Description: OGA biochemical assay (inhibition of FM-GlcNAc hydrolysis, fluorescence). As to conditions: FM-GlcNAc substrate; for Emax: read-out: Enzymatic Emax (%); for IC50: read-out: Enzymatic hOGA, pIC50 (converted). The text has this:
The assay is based on the inhibition of the hydrolysis of fluorescein mono-β-D-N-Acetyl-Glucosamine (FM-GlcNAc) (Mariappa et al. 2015, Biochem J 470:255) by the recombinant human Meningioma Expressed Antigen 5 (MGEA5), also referred to as O-GcNAcase (OGA). The hydrolysis FM-GlcNAc (Marker Gene technologies, cat #M1485) results in the formation of B-D-N-glucosamineacetate and fluorescein. The fluorescence of the latter can be measured at excitation wavelength 485 nm and emission wavelength 538 nm. An increase in enzyme activity results in an increase in fluorescence signal. Full length OGA enzyme was purchased at OnGene (cat #TP322411). The enzyme was stored in 25 mM Tris.HCl, pH 7.3, 100 mM glycine, 10% glycerol at −20° C. Thiamet G and GlcNAcStatin were tested as reference compounds (Yuzwa et al. 2008 Nature Chemical Biology 4:483; Yuzwa et al. 2012 Nature Chemical Biology 8:393). The assay was performed in 200 mM Citrate/phosphate buffer supplemented with 0.005% Tween-20. 35.6 g Na2HPO4 2H2O (Sigma, #C0759) were dissolved in 1 L water to obtain a 200 mM solution. 19.2 g citric acid (Merck, #1.06580) was dissolved in 1 L water to obtain a 100 mM solution. pH of the sodiumphosphate solution was adjusted with the citric acid solution to 7.2. The buffer to stop the reaction consists of a 500 mM Carbonate buffer, pH 11.0. 734 mg FM-GlcNAc were dissolved in 5.48 mL DMSO to obtain a 250 mM solution and was stored at −20° C. OGA was used at a 2 nM concentration and FM-GlcNAc at a 100 uM final concentration. Dilutions were prepared in assay buffer.
50 nl of a compound dissolved in DMSO was dispensed on Black Proxiplate TM 384 Plus Assay plates (Perkin Elmer, #6008269) and 3 μl fl-OGA enzyme mix added subsequently. Plates were pre-incubated for 60 min at room temperature and then 2 μl FM-GlcNAc substrate mix added. […] Plates were briefly centrifuged for 1 min at 1000 rpm and incubate at room temperature for 6 h. To stop the reaction 5 μl STOP buffer were added and plates centrifuge again 1 min at 1000 rpm. Fluorescence was quantified in the Thermo Scientific Fluoroskan Ascent or the PerkinElmer EnVision with excitation wavelength 485 nm and emission wavelength 538 nm.
For analysis a best-fit curve is fitted by a minimum sum of squares method. From this an IC50 value and Hill coefficient was obtained. High control (no inhibitor) and low control (saturating concentrations of standard inhibitor) were used to define the minimum and maximum values.

As a reminder, the Emax is the size of the effect at its maximum, as opposed to the concentration needed. On to `COc1cncc(C[C@H]2CCN(C(C)c3cccc(OC)n3)C2)c1` (mixture of isomers) [Product 143], for which the Emax came to 38% and the IC50 was more than 10 µM.

`COc1cccc(C(C)N2CC[C@H](Cc3cncc(F)c3)C2)n1` (mixture of isomers) [Product 144]: the Emax worked out at 43.4% and the IC50 was more than 10 µM.

For `COc1cccc(C(C)N2CC[C@H](Cc3cccnc3C(F)(F)F)C2)n1` (mixture of isomers) [Product 145], the Emax was found to be 44.3% and the IC50 was more than 10 µM.

With `COc1cccc(C(C)N2CC[C@H](Cc3ccncc3F)C2)n1` (mixture of isomers) [Product 146], the Emax came to 33.1% and the IC50 is more than 10 µM.

Regarding `COc1cccc(C(C)N2CC[C@H](Cc3cccc(C(F)(F)F)n3)C2)n1` (mixture of isomers) [Product 147], the Emax was 14.4% and the IC50 is more than 10 µM.

For the compound `COc1cccc(C(C)N2CC[C@H](Cc3ncccc3F)C2)n1` (mixture of isomers) [Product 148], the Emax turned out to be 11.3% and the IC50 is more than 10 µM.

With `COc1cccc(C[C@H]2CCN(C(C)c3cccc(OC)n3)C2)n1` (mixture of isomers) [Product 149], the Emax was 30.3% and the IC50 is more than 10 µM.

Take `COc1ccc(C[C@H]2CCN(C(C)c3cccc(OC)n3)C2)nc1` (mixture of isomers) [Product 150]: the Emax was 46% and the IC50 was more than 10 µM.

With `COc1cccc(C(C)N2CC[C@H](Cc3ncccc3OC)C2)n1` (mixture of isomers) [Product 151], the Emax worked out at 11.8% and the IC50 was more than 10 µM.

With `CNC(=O)c1nc(C(C)N2CC[C@@H](Cc3cc(C)nc(C)c3)C2)c[nH]1` (mixture of isomers) [Product 163], the Emax was determined as 29% and the IC50 was more than 10 µM.

Consider `CCOc1cc(C[C@@H]2CCN(C(C)c3c[nH]c(OCC)n3)C2)ccn1` (mixture of isomers) [Product 164], for which the Emax is 26% and the IC50 is more than 10 µM.

For the compound `CCOc1cccc(C(C)N2CCCC(Cc3cc(C)nc(C)c3)C2)n1` (single isomer, unassigned) [Product 50], the Emax stood at 16% and the IC50 is more than 10 µM.

Consider `Cc1cc(C[C@H]2CCCN(C(C)c3nc(OC4CCC4)ccc3F)C2)cc(C)n1` (single isomer, unassigned) [Product 55], for which the Emax amounted to 97% and the IC50 is 0.302 µM.

Consider `CCNc1cc(CN2CCC[C@H](Cc3cc(C)nc(C)c3)C2)n[nH]1` [Product 2], for which the Emax turned out to be 93% and the IC50 was 1.05 µM.

In the case of `CC(=O)Nc1cc([C@@H](C)N2CCC[C@H](Cc3cc(C)nc(C)c3)C2)n[nH]1` [Product 4], the “Enzymatic Emax (%)” value is given as 100% and the “Enzymatic hOGA; pIC50” value amounted to 6.61.

Consider `CC(=O)N(C)c1cc(CN2CCC[C@H](Cc3cc(C)nc(C)c3)C2)n[nH]1` [Product 10], for which the Emax was determined as 90% and the IC50 is 1.32 µM.

As for `CC(=O)Nc1cc(CN2CCC[C@H](Cc3cc(C)nc(C)c3)C2)n(C)n1` [Product 11], the Emax worked out at 90% and the IC50 is 1.35 µM.

On to `CC(=O)Nc1[nH]nc([C@@H](C)N2CCC[C@H](Cc3cc(C)nc(C)c3)C2)c1C` [Product 12], for which the “Enzymatic Emax (%)” value is 36% and the “Enzymatic hOGA; pIC50” value was less than 5.

Consider `CC(=O)Nc1[nH]nc([C@H](C)N2CCC[C@H](Cc3cc(C)nc(C)c3)C2)c1C` [Product 13], for which the “Enzymatic Emax (%)” value came out at 7% and the “Enzymatic hOGA; pIC50” value is listed as less than 5.

Consider `CCOc1cc([C@@H](C)N2CCC[C@H](Cc3cc(C)nc(C)c3)C2)n[nH]1` [Product 15], for which the “Enzymatic Emax (%)” value is reported as 65% and the “Enzymatic hOGA; pIC50” value is listed as 5.27.

Consider `CCOc1nc(CN2CCC[C@H](Cc3cc(C)nc(C)c3)C2)c(Br)[nH]1` [Product 22], for which the Emax was 63% and the IC50 is 6.61 µM.

For the compound `Cc1cc(C[C@H]2CCCN(Cc3c[nH]c(C)n3)C2)cc(C)n1` [Product 25], the Emax is 82% and the IC50 was 3.02 µM.

For the compound `CCOc1ncc(CN2CCC[C@H](Cc3cc(C)nc(C)c3)C2)s1` [Product 26], the Emax stood at 71% and the IC50 is 4.57 µM.

As for `CC(=O)Nc1cc(CN2CCC[C@H](Cc3cc(C)nc(C)c3)C2)cs1` [Product 27], the Emax turned out to be 89% and the IC50 was 1.05 µM.

`CC(=O)Nc1ccnc(CN2CCC[C@H](Cc3cc(C)nc(C)c3)C2)c1` [Product 31]: the Emax stood at 63% and the IC50 was 6.46 µM.

`CC(=O)Nc1ccnc(C(C)N2CCC[C@H](Cc3cc(C)nc(C)c3)C2)c1` (stereo partly drawn) [Product 32]: the Emax came to 95% and the IC50 is 0.49 µM.

Take `COc1ccc(F)c([C@@H](C)N2CCC[C@H](Cc3cc(C)nc(C)c3)C2)n1` [Product 41]: the “Enzymatic Emax (%)” value is recorded as 44% and the “Enzymatic hOGA; pIC50” value is less than 5.

`COc1cccc([C@@H](C)N2CCC[C@H](Cc3cc(C)nc(C)c3)C2)n1` [Product 46]: the “Enzymatic Emax (%)” value came to 12% and the “Enzymatic hOGA; pIC50” value is less than 5.

For the compound `CCOc1cccc([C@@H](C)N2CCC[C@H](Cc3cc(C)nc(C)c3)C2)n1` [Product 51], the “Enzymatic Emax (%)” value turned out to be 102% and the “Enzymatic hOGA; pIC50” value is given as 7.01.

In the case of `Cc1cc(C[C@H]2CCCN([C@H](C)c3nc(OC4CCC4)ccc3F)C2)cc(C)n1` [Product 54], the “Enzymatic Emax (%)” value amounted to 10% and the “Enzymatic hOGA; pIC50” value is reported as less than 5.

Consider `COc1ccc(C)c([C@@H](C)N2CCC[C@H](Cc3cc(C)nc(C)c3)C2)n1` [Product 57], for which the “Enzymatic Emax (%)” value came out at 6% and the “Enzymatic hOGA; pIC50” value is given as less than 5.

For `COc1ccc(C)c([C@H](C)N2CCC[C@H](Cc3cc(C)nc(C)c3)C2)n1` [Product 58], the “Enzymatic Emax (%)” value turned out to be 96% and the “Enzymatic hOGA; pIC50” value was found to be 6.1.

`Cc1cc(C[C@H]2CCCN([C@@H](C)c3cccc(C4CC4)n3)C2)cc(C)n1` [Product 60]: the “Enzymatic Emax (%)” value is 88% and the “Enzymatic hOGA; pIC50” value amounted to 5.81.

For the compound `CC(=O)Nc1cc(CN2CCC[C@H](Cc3cc(C)nc(C)c3)C2)cnn1` [Product 62], the Emax is 94% and the IC50 was 0.513 µM.

For `COc1cc(C[C@H]2CCCN(C(C)c3nc(OC)ccc3F)C2)cc(C)n1` (stereo partly drawn) [Product 69], the IC50 is 0.0759 µM. The “Enzymatic Emax (%)” value (listed as 69) was 103%.

With `COc1ccc(F)c(C(C)N2CCC[C@H](Cc3cc(C)nc(C(F)(F)F)c3)C2)n1` (stereo partly drawn) [Product 71], the Emax amounted to 104% and the IC50 is 0.0891 µM.
